# Target: T1, T-p53C-Y220C (Homo sapiens, UniProt P04637, M133L/N239Y/N268D/V203A/Y220C)
# T1 construct: For all other experiments, the DNA coding for residues 94-312 of T-p53C was inserted into a modified pET24a(+) vector; 6xHis tag + B. stearothermophilus dihydrolipoyl acetyltransferase lipoyl domain (aa 1-85) + TEV site (N, cleaved yes); made in house; host or cells: Escherichia coli BL21 (DE3) or C41 (DE3)
# Assay: Thermal denaturation using fluorescence (Sypro Orange)
# Assay type: binding
# Conditions: further compounds; 10 μM protein
# Procedure: This was by an adaption of the classical procedure (e.g. ref A6). Thermal unfolding was monitored by the binding of the dye Sypro Orange (5×) using a Rotor-gene 6000 (Corbett Life Science) at 270 K/h in 25 mM NaPi, 150 mM NaCl and 5 mM DTT, pH 7.2 with a protein concentration of 10 μM.
# (§1) Where listed, S.E. is the calculated standard error.
# as §1
row,SMILES,ΔTm (° C.) [°C]
1,CCn1c2ccccc2c2cc(NC(=O)COc3ccc(S(=O)(=O)N4CCOCC4)cc3)ccc21 [PK094],0.195
2,CCn1c2ccccc2c2cc(NC(=O)COC(=O)CNC(=O)c3ccc([N+](=O)[O-])cc3)ccc21 [PK108],0.335
3,CCOC(=O)/C=C/C(=O)OCC(=O)Nc1ccc2c(c1)c1ccccc1n2CC [PK113],0.36
4,CCn1c2ccccc2c2cc(NC(=O)CN3C(=O)NC4(CCCC4)C3=O)ccc21 [PK116],0.365
5,CCn1c2ccccc2c2cc(NC(=O)COC(=O)Cn3nc(C)c([N+](=O)[O-])c3C)ccc21 [PK118],0.28
6,CCn1c2ccccc2c2cc(NC(=O)CN(C)CC(=O)Nc3ccc(N4CCOCC4)cc3)ccc21 [PK122],0.28
7,CCCN1CCN(CC(=O)Nc2ccc3c(c2)c2ccccc2n3CC)CC1 [PK126],0.23
8,CCn1c2ccccc2c2cc(NC(=O)CN3CCOCC3)ccc21 [PK128],0.24
9,CCn1c2ccccc2c2cc(NC(=O)CO)ccc21 [PK132],0.2
10,CCn1c2ccccc2c2cc(NC(=O)C(C)OC(=O)c3n[nH]c(=O)c4ccccc34)ccc21 (centres unmarked) [PK133],0.145
11,CCn1c2ccccc2c2cc(NC(=O)CCCC(=O)O)ccc21 [PK135],0.083
12,CCn1c2ccccc2c2cc(NC(=O)CN3CCC(C(N)=O)CC3)ccc21 [PK151],0.14
13,CCn1c2ccccc2c2cc(NC(=O)C3=COCCO3)ccc21 [PK153],0.16
14,CCn1c2ccccc2c2cc(CN(C)c3ccc4nnnn4n3)ccc21 [PK157],0.12
15,CCn1c2ccccc2c2cc(NC(=O)COc3ccc([N+](=O)[O-])nc3)ccc21 [PK163],0.27
16,CCn1c2ccccc2c2cc(NC(=O)CN3C(=O)NC4(CCCCC4)C3=O)ccc21 [PK165],0.24
17,CCn1c2ccccc2c2cc(CN3CCCN(C)CC3)ccc21 [PK175],0.395
18,CCn1c2ccccc2c2cc(CN3CCc4ccccc4C3)ccc21 [PK176],0.455
19,CCn1c2ccccc2c2cc(CN3CCN(C)CC3)ccc21 [PK177],0.2
20,CCn1c2ccccc2c2cc(CN(C)CC(O)c3ccccc3)ccc21 (centres unmarked) [PK186],0.18
21,CCn1c2ccccc2c2cc(CN3CCOCC3)ccc21 [PK190],0.15
22,CCn1c2ccccc2c2cc(CN3CCN(Cc4ccccc4C(F)(F)F)CC3)ccc21 [PK197],0.08

row,SMILES,ΔTm (° C.) [°C]
1,CCn1c2ccccc2c2cc(CN3CCN(Cc4cc(OC)ccc4O)CC3)ccc21 [PK202],0.17
2,CCn1c2ccccc2c2cc(CNCCN3CCOCC3)ccc21 [PK208],0.35
3,CCn1cc(C(=O)CN2CCc3ccccc3C2)c2ccccc21 [PK212],0.387
4,CCn1c2ccccc2c2cc(CN3CCN(S(=O)(=O)c4ccccc4)CC3)ccc21 [PK215],0.17
5,CCn1c2ccccc2c2cc(CN3CCCC(C4NC(=O)NC4C)C3)ccc21 (centres unmarked) [PK218],0.31
6,CCn1cc(C2CC3CN(C)C(=O)C34CCCN24)c2ccccc21 (centres unmarked) [PK222],0.14
7,CNCc1ccc2c(c1)c1ccccc1n2CCCl [PK229],0.7
8,CCn1c2ccccc2c2cc(CNCC(F)(F)F)ccc21 [PK230],0.4
9,CNCc1ccc2c(c1)c1ccccc1n2CCBr [PK232],0.39
10,CNCc1ccc2c(c1)c1ccccc1n2CCS [PK234],0.28
11,CCn1c(-c2cn(CC)c3ccccc23)n[nH]c1=S [PK236],0.3
12,CCn1cc(C(=O)Nc2ccc(OC)cc2)c2ccccc21 [PK237],0.2
13,CCn1cc(C=C(C#N)C#N)c2ccccc21 [PK238],0.2
14,CCn1cc(C=C(C#N)C(N)=O)c2ccccc21 [PK240],0.2
15,CCOC(=O)c1c(C)n(C)c2ccc(O)cc12 [PK241],0.2
16,CCn1cc(C(=O)O)c2ccccc21 [PK242],0.16
17,Cc1c(C=O)c2ccccc2n1C [PK243],0.2
18,CCOC(=O)c1c(C)n(CC)c2ccc(OC(=O)Nc3ccc(Cl)cc3)cc12 [PK246],0.31
19,CCOC(=O)c1c(C)n(CC)c2cc(Br)c(OC)cc12 [PK248],0.21
20,CCOC(=O)c1c(C)n(C)c2ccc(OCCN(C)C)cc12 [PK250],0.14
21,Cn1cc(NN)c2ccccc21 [PK253],0.093
22,[2H]NNS(=O)(=O)c1ccc(OC(F)(F)F)cc1 [PK254],0.43

row,SMILES,ΔTm (° C.) [°C]
1,[2H]NNS(=O)(=O)c1cccc(C(F)(F)F)c1 [PK255],0.26
2,[2H]C(=O)OCC(=O)NC(=O)NCC=C [PK256],0.1
3,[2H]C(=O)OCC(=O)NCC(F)(F)F [PK258],0.1
4,[2H]C(=O)OC(C)C(=O)NC(N)=O (centres unmarked) [PK263],0.06
5,[2H]C(=O)OCC(=O)Nc1cc(C)on1 [PK264],0.19
6,[2H]C(=O)OCC(=O)NC(=O)NCC [PK266],0.18
7,[2H]C(=O)OCC(=O)NC(=O)NC [PK268],0.31
8,[2H]C(=O)OCC(=O)NC(=O)NC1CCCC1 [PK269],0.15
9,CCn1cc(C(=O)OC(C)C(=O)Nc2cc(C)on2)c2ccccc21 (centres unmarked) [PK270],0.11
10,CCn1cc(C(=O)Nc2cccc(S(=O)(=O)N(C)C)c2)c2ccccc21 [PK272],0.44
11,CCn1cc(C(=O)OCC(=O)NC(=O)NCc2ccco2)c2ccccc21 [PK273],0.28
12,COc1ccc2c(c1)c(C(=O)NCCc1ccccn1)c(C)n2C1CC1 [PK276],0.29
13,COc1ccc2c(c1)c(C(=O)NC(C)C(C)C)c(C)n2C1CC1 (centres unmarked) [PK277],0.34
14,CCn1cc(C(=O)OCC(=O)c2ccc[nH]2)c2ccccc21 [PK279],0.24
15,[2H]C(=O)Nc1cc(S(=O)(=O)N2CCN(C)CC2)ccc1OC [PK280],0.42
16,[2H]NNS(=O)(=O)c1ccc(C(=O)OC)cc1 [PK281],0.43
17,[2H]C(=O)N1CCN(c2ncccn2)CC1 [PK283],0.19
18,[2H]C(=O)OC(CC)C(=O)Nc1cc(C)on1 (centres unmarked) [PK284],0.23
19,[2H]C(=O)N1CCN(Cc2ccccc2)CC1 [PK285],0.2
20,[2H]C(=O)OC(C)c1nc(N)nc(N(C)C)n1 (centres unmarked) [PK286],0.24
21,[2H]C(=O)Nc1ccc(OC)c(S(N)(=O)=O)c1 [PK292],0.154
22,[2H]C(=O)N1CCc2[nH]c3ccccc3c2C1 [PK293],0.3741

row,SMILES,ΔTm (° C.) [°C]
1,COc1ccc2c(c1)c(C(=O)OC(C(N)=O)c1ccccc1)c(C)n2C1CC1 (centres unmarked) [PK294],0.064
2,[2H]C(=O)Nc1ccc(N2CCN(C)CC2)cc1C [PK295],0.244
3,CCn1cc(C(=O)OCc2nc(N)nc(Nc3ccccc3)n2)c2ccccc21 [PK301],0.3
4,CCOC(=O)c1c(C)n(C2CC2)c2ccc(OC(=O)C3COc4ccccc4O3)cc12 (centres unmarked) [PK305],0.26
5,CCn1cc(C(=O)NCc2cccc(S(=O)(=O)N3CCOCC3)c2)c2ccccc21 [PK306],0.26
6,CCn1cc(C(=O)NCc2cccc(NC(=O)C3CC3)c2)c2ccccc21 [PK307],0.26
7,CCn1cc(C(=O)OCCOc2ccccc2C(C)=O)c2ccccc21 [PK309],0.29
8,COc1ccc2c(c1)c(C(=O)OCC(=O)Nc1cc(F)ccc1F)c(C)n2C1CC1 [PK310],0.36
9,CCn1cc(C(=O)OCC2CNC(=O)O2)c2ccccc21 (centres unmarked) [PK311],0.15
10,CCn1cc(C(=O)NCc2cccc(NC(=O)C3CC3)c2)c2ccccc21 [PK312],0.15
11,CCn1cc(C(=O)Nc2c(C)nn(C)c2C)c2ccccc21 [PK313],0.28
12,CCn1cc(C(=O)NCc2cccc(NC(=O)c3ccco3)c2)c2ccccc21 [PK314],0.16
13,[2H]C(=O)N(C)Cc1nc2ccccc2c(=O)[nH]1 [PK315],0.29
14,CCn1cc(C(=O)NC(c2cccc(F)c2)c2nccn2C)c2ccccc21 (centres unmarked) [PK317],0.09
15,CCn1cc(C(=O)Nc2ccn(C)n2)c2ccccc21 [PK318],0.12
16,CCn1cc(C(=O)OC)c2ccccc21 [PK339],0.4
17,CCn1c2ccccc2c2cc(CNCCSc3nnnn3C)ccc21 [PK390],0.41
18,CCn1c2ccccc2c2cc(CNCC(C)O)ccc21 (centres unmarked) [PK391],0.66
19,CCn1c2ccccc2c2cc(CNCCNCCO)ccc21 [PK392],0.70
20,CCn1c(C)c(C(=O)NCCN(C)C)c2cc(OC)ccc21 [PK402],0.19
21,CCOc1ccc2c(c1)c(CCN)cn2CC [PK407],0.29
22,CCCn1cc(CCN)c2cc(OCC)ccc21 [PK408],0.26

# Same assay, conditions: further studies on compounds described above; 10 μM protein
row,SMILES,ΔTm (° C.) [°C]
1,CCn1c2ccccc2c2cc(NC(=O)COc3ccc([N+](=O)[O-])nc3)ccc21 [PK163],0.24
